# Results as given in paper PMC9822270, “Modulation Effect on Tubulin Polymerization, Cytotoxicity and Antioxidant Activity of 1H-Benzimidazole-2-Yl Hydrazones” (Molecules, 2022).
# Values joined by “and” are separate entries in the source; they are usually repeats but may differ in a detail not shown here. Identical values can stand only once. “Also recorded” adds a separate entry of the source. Like-named read-outs stand apart in the source and are kept apart here.
# How the values were obtained:
# porcine brain tubulin = target: T1, porcine brain tubulin (Sus scrofa, UniProt P02550+P02554); assay: In vitro tubulin polymerization assay (turbidity at 340 nm); type: biochemical; conditions: 10 µM compound; for Initial Rate of the Exponential Phase, Signal Response / Lag Time: 37 °C, 90 min, turbidity 340 nm
# T1 construct: The standard reaction mixture contains 95 μL of 4 mg.mL^−1 porcine brain tubulin; purchased Cytoskeleton, USA BK004P; host or cells: porcine brain (tissue-purified)
# T1 sequence (P02550 whole entry): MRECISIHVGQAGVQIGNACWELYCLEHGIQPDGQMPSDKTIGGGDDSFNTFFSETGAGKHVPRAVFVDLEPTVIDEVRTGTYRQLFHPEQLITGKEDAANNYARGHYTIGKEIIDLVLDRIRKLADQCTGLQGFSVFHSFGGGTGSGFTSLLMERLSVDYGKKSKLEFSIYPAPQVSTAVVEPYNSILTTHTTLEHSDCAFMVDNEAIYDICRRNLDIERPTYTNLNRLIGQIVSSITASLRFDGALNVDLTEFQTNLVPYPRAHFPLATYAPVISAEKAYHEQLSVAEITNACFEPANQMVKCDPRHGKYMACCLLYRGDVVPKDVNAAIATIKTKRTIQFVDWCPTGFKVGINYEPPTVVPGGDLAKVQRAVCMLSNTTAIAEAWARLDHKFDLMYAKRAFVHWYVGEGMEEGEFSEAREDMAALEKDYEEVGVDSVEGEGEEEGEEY
# T1 sequence (P02554 whole entry): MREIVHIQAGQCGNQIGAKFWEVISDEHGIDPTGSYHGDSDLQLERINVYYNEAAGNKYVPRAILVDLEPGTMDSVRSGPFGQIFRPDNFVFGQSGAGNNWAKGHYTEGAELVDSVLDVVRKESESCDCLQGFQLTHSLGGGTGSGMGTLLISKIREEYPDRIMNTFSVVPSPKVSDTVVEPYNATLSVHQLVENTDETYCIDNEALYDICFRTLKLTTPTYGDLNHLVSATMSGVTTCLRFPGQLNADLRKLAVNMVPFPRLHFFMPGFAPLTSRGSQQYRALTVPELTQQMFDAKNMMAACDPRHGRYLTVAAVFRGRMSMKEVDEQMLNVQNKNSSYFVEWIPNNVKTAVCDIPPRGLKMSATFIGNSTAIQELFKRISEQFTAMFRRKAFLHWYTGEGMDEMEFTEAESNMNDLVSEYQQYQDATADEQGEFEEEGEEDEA
# Method: The ability of the compounds to modulate the polymerization of tubulin was evaluated in vitro on purified porcine tubulin by spectrophotometric monitoring at 340 nm and compared to those of nocodazole and paclitaxel as reference compounds. Nocodazole which inhibits the assembly of tubulin was used as a positive control, and paclitaxel which is a stabilizing agent of tubulin polymerization was used as a negative control. Tubulin polymerization was determined with 10 µM of the reference drugs and compounds 1a–l for 90 min.
# Figure 3 Porcine brain tubulin (final […]) in presence of PB-GTP buffer, 10 µM paclitaxel, 10 µM nocodazole and 10 µM of the assayed compounds. Reaction was conducted in thermostated spectrophotometric chamber at 37 °C for 90 min. Turbidity was measured at 340 nm every 30 s.
# The effect of the studied compounds on the polymerization of purified porcine tubulin was monitored using a commercial assay kit (cat. number BK004P), purchased from Cytoskeleton, USA. Stock solutions of porcine brain tubulin solutions (4 mg.mL^−1) were prepared immediately prior to use in general tubulin buffer (80 mM piperazine-N,N′-bis(2-ethanesulfonic acid, PIPES) pH 6.9, 2 mM MgCl2 and 0.5 mM (ethylene glycol-bis(β-aminoethyl ether)-N,N,N′,N′-tetraacetic acid, EGTA) containing 1 mM guanosine triphosphate (GTP) (G-PEM buffer). Stock solutions of Paclitaxel (100 µM), Noconazole (100 µM) or tested samples (100 µM) in G-PEM buffer containing 5% DMSO were prepared.
# The standard reaction mixture contains 95 μL of 4 mg.mL^−1 porcine brain tubulin and 5 μL of standards, test samples or G-PEM buffer only (control). Then, the microplate with loaded reaction mixtures was incubated for 90 min. at 37 °C in a thermostated spectrophotometer chamber. The turbidity of the mixtures was measured at 340 nm every 30 s. The experiment was performed on SpectroStar Nano (BMG Labtech, Aylesbury, UK) equipped with software for kinetic measurements.
# [1] = test system: MCF-7 (ER-positive breast adenocarcinoma); assay: MTT cytotoxicity assay, MCF-7; type: cell-based, human; conditions: for IC50: Homo sapiens, read-out: IC50 MCF-7
# Source text: (§1) A standard colorimetric MTT assay was used to evaluate the anticancer activity of the newly synthesized 1H-benzimidazol-2-yl hydrazone derivatives against human malignant cell lines of different histological origin, namely MCF-7 (ER-positive breast adenocarcinoma) and AR-230 (BCR-ABL positive chronic myeloid leukemia), using podophyllotoxin as a reference drug. For each compound, the half-inhibitory concentrations (IC50) were estimated based on the derived “dose–response” relationships following 72h exposure time. In addition, their cytotoxicity was measured against normal fibroblast cells 3T3 (mouse embryo fibroblasts) and CCL-1 (murine fibroblasts) and respective cancer selectivity indices (CSI) were calculated (Table 2).
# (§2) The cell lines MCF-7, AR-231 and CCL-1 were obtained from the German Collection of Microorganisms and Cell Cultures. Cells were kept in a controlled environment—RPMI-1640 medium supplemented with 10% fetal bovine serum (FBS) and 2mM L-glutamine, at 37 °C in an incubator with 5% CO2 humidified atmosphere.
# (§3) MTT-based colorimetric assay was used for evaluating the cell viability. The method is based on the reduction of the yellow tetrazolium compound MTT to water-insoluble, violet formazan crystals. MCF-7, AR-231, and CCL-1 cells were seeded in 96-well, flatbottomed microplates (100 µL/well) at a density of 3 × 10^5 cells per mL and allowed to grow for 24 h prior the exposure to the studied compounds. Cells were exposed to the tested agents for 72 h. After the exposure period MTT solution (10 mg.mL^−1) aliquots (100 µL/well) were added to each well. The plates were further incubated for 4 h at 37 °C and the MTT-formazan crystals formed were dissolved through addition of […] of 5% HCOOH in 2-propanol. The absorption was measured at 580 nm using a microplate reader (Labexim LMR-1).
# [2] = test system: AR-230 (BCR-ABL positive chronic myeloid leukemia); assay: MTT cytotoxicity assay, AR-230; type: cell-based, human; conditions: for IC50: Homo sapiens, read-out: IC50 AR-230
# Source text: as §1, §2, §3
# [3] = test system: 3T3 (mouse embryo fibroblasts); assay: Cytotoxicity against normal 3T3 cells; type: cell-based; conditions: normal mouse embryo fibroblast cell line; ± SD
# Source text: as §1
# Evaluation of the cytotoxic activity of some of the compounds was performed on 3T3 (mouse embryo fibroblasts) cell line. The cells were cultivated in Dulbecco′s Modified Eagle′s Medium (DMEM), containing 10% FBS, with supplements L-glutamine, sodium pyruvate, antibiotic and non-essential amino acids, and allowed to adhere overnight at 37 °C in an incubator with 5% CO2 humidified atmosphere. At the end of the incubation, the cells were treated with different concentrations of the compounds in a final volume of 100 μL/well in triplicate wells for each treatment for 24 h at 37 °C in a CO2 incubator. All studies were repeated at least twice. Control cells were grown in DMEM containing 10% FBS and allowed to stabilize overnight at 37 °C in a CO2 incubator and left without treatment.
# [4] = Hydroxyl radical averting capacity (HORAC); conditions: gallic acid equivalents; sample final concentration 2.5 μM; Co(II)/H2O2, fluorescein; mean
# Method: HORAC values of various phenolic compounds are related to their metal chelating properties and molecules that can chelate metals show significant HORAC values. According to the HORAC assays, the antioxidant capacity ranged between 0.50 and 3.03 GAE. […] To our knowledge, the current study is the first one to report ORAC and HORAC activities of 1H-benzimidazole-2-yl hydrazones.
# HORAC was performed according to Ou et al. and fluorescein was used as the fluorescent probe. Hydrogen peroxide solution of 0.55 M was prepared in distilled water. 4.6 mM Co(II) was prepared as follows: 15.7 mg of CoF2.4H2O and 20 mg of picolinic acid were dissolved in 20 mL of distilled water. Fluorescein—170 µL (60 nM, final concentration) and 10 µL of sample were incubated at 37 °C for 10 min directly in the FLUOstar plate reader. […] The initial fluorescence was measured after which the readings were taken every minute after shaking. […] The AUC were calculated as they were for the ORAC assay. One HORAC unit was assigned to the net protection area provided by 1 µM gallic acid (final concentration −0.05 μM) and the activity of the sample was expressed as Gallic Acid Equivalents (GAE).
# ORAC and HORAC analyses were carried out on a FLUOstar Galaxy plate reader (BMG Labtechnology, Offenburg, Germany) with excitation wavelength = 485 nm and emission wavelength = 520 nm.
# [5] = test system: CCL-1 (murine fibroblasts); assay: MTT cytotoxicity against normal CCL-1 cells; type: cell-based; conditions: Mus musculus, 72 h, read-out: IC50 CCL-1
# Source text: as §1, §2, §3
# [6] = normal murine fibroblast cell line, MTT, ± SD
"Initial Rate of the Exponential Phase, Signal Response (porcine brain tubulin) [a.u.s^−1 × 10^−6]",Lag Time (porcine brain tubulin),lag time of tubulin polymerization (porcine brain tubulin),SMILES,"IC50 ([1]; MCF7, MTT, 72 h exposure, ± SD) [µM]",CSI MCF-7 (cancer selectivity index) ([1]; IC50(3T3)/IC50(MCF-7)),"IC50 ([2]; MTT, 72 h exposure, ± SD) [µM]",CSI AR230 (cancer selectivity index) ([2]; IC50(3T3)/IC50(AR-230)),IC50 [3] [µM],HORAC [4] [GAE],CSI AR230 (cancer selectivity index) ([2]; IC50(CCL-1)/IC50(AR-230)),"IC50 [5, 6] [µM]",CSI MCF-7 (cancer selectivity index) ([1]; IC50(CCL-1)/IC50(MCF-7)),"IC50 ([1]; MCF7, 72 h) [µM]",IC50 ([2]; 72 h) [µM],IC50 ([5]; Fibroblast) [µM]
8.77,1390 s,–,Oc1ccccc1/C=N/Nc1nc2ccccc2[nH]1 [Compound 1a],18.7 ± 1.1,≈11,21.2 ± 2.3,≈9.6,204 ± 5.1,–,–,–,–,–,–,–
13.4,1400 s and 1461 s,–,Oc1cccc(/C=N/Nc2nc3ccccc3[nH]2)c1O [Compound 1b],64.5 ± 6.2,≈1,3.3 ± 0.3,≈18.4,61.1 ± 1.8,–,–,–,–,–,–,–
4.9,1190 s,–,Oc1ccc(/C=N/Nc2nc3ccccc3[nH]2)c(O)c1 [Compound 1c],–,–,–,–,–,2.69,–,–,–,–,–,–
13.3,1400 s and 1407 s,–,Oc1ccc(/C=N/Nc2nc3ccccc3[nH]2)cc1O [Compound 1d],–,–,61.8 ± 5.7,–,–,–,≈1.8,113 ± 9.1,–,–,–,–
9.7,1295 s,more than 20 min,COc1ccc(/C=N/Nc2nc3ccccc3[nH]2)c(O)c1 [Compound 1k],1.5 ± 0.3,–,0.9 ± 0.1,–,–,–,≈113,102 ± 7.3,≈67.8,–,–,–

# Further lines, the molecule ahead of its results:
SMILES,"Initial Rate of the Exponential Phase, Signal Response (porcine brain tubulin) [a.u.s^−1 × 10^−6]",Lag Time (porcine brain tubulin),lag time of tubulin polymerization (porcine brain tubulin),"IC50 ([1]; MCF7, MTT, 72 h exposure, ± SD) [µM]",CSI MCF-7 (cancer selectivity index) ([1]; IC50(3T3)/IC50(MCF-7)),"IC50 ([2]; MTT, 72 h exposure, ± SD) [µM]",CSI AR230 (cancer selectivity index) ([2]; IC50(3T3)/IC50(AR-230)),IC50 [3] [µM],HORAC [4] [GAE],CSI AR230 (cancer selectivity index) ([2]; IC50(CCL-1)/IC50(AR-230)),"IC50 [5, 6] [µM]",CSI MCF-7 (cancer selectivity index) ([1]; IC50(CCL-1)/IC50(MCF-7)),"IC50 ([1]; MCF7, 72 h) [µM]",IC50 ([2]; 72 h) [µM],IC50 ([5]; Fibroblast) [µM]
Oc1ccc(/C=N/Nc2nc3ccccc3[nH]2)c(O)c1O [Compound 1e],–,–,–,–,–,–,–,–,2.79,–,–,–,–,–,–
COc1ccc(/C=N/Nc2nc3ccccc3[nH]2)cc1 [Compound 1f],17.1,807 s,–,11.2 ± 1.3,≈31.6,19.4 ± 2.2,≈18.2,355 ± 5.3,–,–,–,–,–,–,–
COc1cccc(OC)c1/C=N/Nc1nc2ccccc2[nH]1 [Compound 1g],10.7,1000 s,–,7.9 ± 2.1,≈33,11.5 ± 1,≈22.6,261 ± 4.7,–,–,–,–,–,–,–
COc1cc(/C=N/Nc2nc3ccccc3[nH]2)cc(OC)c1 [Compound 1h],23.1,1090 s,–,4.6 ± 0.7,≈72.8,5.9 ± 0.9,≈56.7,335 ± 7,–,–,–,–,–,–,–
COc1cc(/C=N/Nc2nc3ccccc3[nH]2)cc(OC)c1OC [Compound 1i],20.6,988 s,–,1.2 ± 0.2,≈59.1,1.7 ± 0.3,≈41.7,71 ± 2.4,–,–,–,–,–,–,–
COc1cccc(/C=N/Nc2nc3ccccc3[nH]2)c1O [Compound 1j],16.9,1200 s,more than 20 min,6.4 ± 1.2,–,1.1 ± 0.2,–,–,–,≈ 363; also recorded: ≈363.6,> 400,> 50,–,–,–
COc1ccc(/C=N/Nc2nc3ccccc3[nH]2)cc1O [Compound 1l],16,no lag phase,–,27.6 ± 3.5,≈4.8,16.8 ± 3.4,≈8,134.7 ± 1.3,–,–,–,–,–,–,–
"COc1cc([C@@H]2c3cc4c(cc3[C@H](O)[C@H]3COC(=O)[C@H]23)OCO4)cc(OC)c1OC [Podophyllotoxin, reference compound]",–,–,–,–,–,–,–,–,–,≈5.7,–,≈9,0.3 ± 0.06,0.47 ± 0.09,2.7
"COC(=O)Nc1nc2ccc(C(=O)c3cccs3)cc2[nH]1 [nocodazole, reference compound]",52,935 s,–,–,–,–,–,–,–,–,–,–,–,–,–
"CC(=O)O[C@H]1C(=O)[C@@]2(C)[C@H]([C@H](OC(=O)c3ccccc3)[C@]3(O)C[C@H](OC(=O)[C@H](O)[C@@H](NC(=O)c4ccccc4)c4ccccc4)C(C)=C1C3(C)C)[C@]1(OC(C)=O)CO[C@@H]1C[C@@H]2O [paclitaxel, reference compound]",167,151 s,–,–,–,–,–,–,–,–,–,–,–,–,–
